The target in experiment [1] is T1, RAIG2 (Homo sapiens, UniProt Q9NZH0).
T1 construct: expressed in transfected cells; host or cells: mouse insulinoma MIN6 cells, transient transfection with pIRES2-EGFP (CLONTECH) vector
Briefly: Insulin secretion in MIN6 cells having RAIG2 expressed forcibly (ELISA). Type of experiment: cell-based, mouse. The note with it: 0.6 mM 1,5-AG added to 2.8 mM glucose, FIG. 2a. The protocol: (§1) Mouse insulinoma MIN6 cells (supplied by Dr. Junichi Miyazaki at the Division of Stem Cell Regulation Research, Department of Molecular Therapeutics, G6 Division of Pathophysiology and Therapeutics, Osaka University Graduate School of Medicine) were cultured in a 24-well plate containing a DMEM comprising 15% fetal calf serum (inactivated by treatment at 56° C. for 30 minutes), 5 μl/l β-mercaptoethanol and 4.5 g/l glucose, in an atmosphere of 5% CO2/95% air, at 37° C. and low density. cDNAs of RAIG2 and RAIG3 were obtained from a human brain or liver cDNA library by a conventional method of PCR. This was inserted into pIRES2-EGFP (CLONTECH). After 24 hours, the above-described cells were transfected with an expression vector containing the RAIG2 or RAIG3 cDNA. The transfection was performed using Lipofectamin 2000 (Invitrogen), as directed in the manufacturer's manual. After 48 hours of further cultivation, the cells were retained in a KRBB solution [129 mM NaCl, 4.8 mM KCl, 1.2 mM MgSO4, 1.2 mM KH2PO4, 4.8 mM NaHCO3, 10 mM HEPES, 2.5 mM CaCl2, 0.2% bovine serum albumin (pH adjusted to 7.4)] containing 2.8 mM glucose at 37° C. for 15 minutes, and then washed. […] Each 10 μl portion of the culture supernatant was taken, and the insulin content was measured by ELISA.
In general terms: ELISA stands for enzyme-linked immunosorbent assay.

Experiment [2] addresses T2, RAIG3 (Homo sapiens, UniProt Q9NQ84).
T2 construct: expressed in transfected cells; host or cells: mouse insulinoma MIN6 cells, transient transfection with pIRES2-EGFP (CLONTECH) vector
The experiment in a line: Insulin secretion in MIN6 cells having RAIG3 expressed forcibly (ELISA). Type of experiment: cell-based. The note with it: 0.6 mM 1,5-AG added to 2.8 mM glucose, FIG. 2b. The protocol:
as §1

SMILES strings stand for the structures.

T2 sequence (Q9NQ84 1-453 isoform Q9NQ84-2): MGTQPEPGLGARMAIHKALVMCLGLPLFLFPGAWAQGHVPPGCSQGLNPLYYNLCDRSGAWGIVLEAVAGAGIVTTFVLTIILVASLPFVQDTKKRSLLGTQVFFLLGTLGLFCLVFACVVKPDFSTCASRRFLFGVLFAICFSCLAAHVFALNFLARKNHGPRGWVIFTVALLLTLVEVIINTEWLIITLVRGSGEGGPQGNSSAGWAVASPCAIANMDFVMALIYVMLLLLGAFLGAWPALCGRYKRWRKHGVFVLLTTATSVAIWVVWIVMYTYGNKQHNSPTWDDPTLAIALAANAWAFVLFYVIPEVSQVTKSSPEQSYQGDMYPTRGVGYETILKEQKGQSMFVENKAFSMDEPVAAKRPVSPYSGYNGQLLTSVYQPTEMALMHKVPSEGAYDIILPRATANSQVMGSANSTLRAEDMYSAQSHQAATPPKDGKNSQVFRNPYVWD
T1 sequence (Q9NZH0 29-403): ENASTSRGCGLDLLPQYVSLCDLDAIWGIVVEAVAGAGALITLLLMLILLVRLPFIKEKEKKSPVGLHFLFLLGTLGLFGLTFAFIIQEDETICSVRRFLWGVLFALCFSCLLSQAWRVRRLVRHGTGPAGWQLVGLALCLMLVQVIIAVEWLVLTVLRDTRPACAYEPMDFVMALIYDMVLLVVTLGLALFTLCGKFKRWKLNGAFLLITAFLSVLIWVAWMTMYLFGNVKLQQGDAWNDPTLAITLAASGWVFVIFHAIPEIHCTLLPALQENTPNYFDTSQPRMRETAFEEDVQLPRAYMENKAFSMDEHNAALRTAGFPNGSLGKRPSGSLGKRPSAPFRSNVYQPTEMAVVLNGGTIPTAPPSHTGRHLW

Turning to `OC[C@H]1OC[C@H](O)[C@@H](O)[C@@H]1O` [1,5-AG, 1,5-anhydroglucitol], the insulin release result in experiment [1] and in experiment [2] was “insulin release equivalent to that with 20 mM glucose” throughout.

Source of the values: patent US20090170773A1, “NOVEL USE OF G-PROTEIN-CONJUGATED RECEPTOR AND LIGAND THEREOF” (RIKEN, priority 2006, published 2009).
